Where two headings read alike, the source gives them in different places.

Holding throughout (assay type): cell-based
In assay [1] the test system is A2780 ovarian cancer cells. The experiment in a line: In vitro growth inhibition assay, Alamar Blue, single agent IC50. As to conditions: Homo sapiens. As for the experimental part: (§1) In vitro growth inhibition assays were performed as technical triplicate in two independent experiments and cell viability was assessed by Alamar Blue assay readout. Briefly, cells in logarithmic phase growth were seeded in 384-well plates in a 50 μL/well assay volume. Cells were seeded at 1,200 cells/well using a Multidrop 384 (Thermo Scientific) and allowed to adhere at 37° C. with 5% CO2, in a humidified atmosphere (LiCONIC incubator). After 24 hours incubation, test compounds, positive control (20 μM Thonzonium bromide, 100% kill) and vehicle only (0.4% DMSO) were added into wells of each assay plate using a Tecan HP D300 Digital Dispenser in technical triplicate under minimum light. Following 72 hours drug exposure, metabolic activity was detected by addition of 10% (v/v) Alamar Blue reagent to each assay well using a Multidrop Cambi (Thermo Scientific) and determined by measurement of fluorescence intensity (excitation 555 nm, emission 585 nm) using an EnSpire (Perkin Elmer) plate reader. Readings were performed at 0 hour (background) and after 6 hours alamar blue incubation at 37° C.
Each drug was tested as a 10-point concentration series with two-fold serial dilutions of each drug. The concentration series for compounds 6 and 8 was 100, 50, 25, 12.5, 6.25, 3.125, 1.563, 0.781, 0.391 and 0.195 μM and for compounds 24, 43 and 48 was 50, 25, 12.5, 6.25, 3.125, 1.563, 0.781, 0.391, 0.195 and 0.098 μM for the two independent experiments. The concentration series for vinorelbine and paclitaxel was 100, 50, 25, 12.5, 6.25, 3.125, 1.5625, 0.781, 0.391 and 0.195 nM. Thonzonium bromide (20 μM) and 0.4% DMSO were used as positive and vehicle controls, respectively. The IC50 value was calculated by derivation of the best-fit line using a sigmoidal dose response model (Activity Base Software Suite, IDES).
Activity Base software suite (IDES, version 8.3.0.175) was used for data analysis. Cell survival is expressed as a percentage of viable cells. IC50 concentrations were calculated by derivation of the best-fit line using a sigmoidal dose response model with technical triplicate data points.

For the next assay, the system named is A549 (NSCLC) cells. In words: Anti-proliferative activity, Cell-Titre luminescent viability assay. The note with it: Homo sapiens, 72 h exposure, Cell-Titre luminescent reagent. An outline of the steps:
(§2)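 Cells attached 24 h at 37° C., 5% CO2, then treated 72 h with compound at 0.3–100 μM or 0.1–30 μM. Viability read by Cell-Titre luminescence after 30 min reagent exposure, normalized to vehicle; EC50 from variable-slope sigmoidal nonlinear regression.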

The next assay relates to A2780 (ovarian) cells. The description is as above. As to conditions: Homo sapiens, 72 h exposure, Cell-Titre luminescent reagent. An outline of the steps:
as §2

Assay [2] relates to A2780 ovarian cancer cells. In words: Drug combination screen, 6x6 dose matrix, Bliss-independence synergy. The arrangement: key to Max. Synergy, Vinorelbine: Bliss synergy score; 0 = no synergy, negative = antagonism; highest in matrix; key to Total Synergy, Vinorelbine: sum of Bliss synergy scores across the dose matrix. As to conditions: 72 h (26*: 96-well plate format); for Max. Synergy, Paclitaxel / Total Synergy, Paclitaxel: combination with paclitaxel; for Max. Synergy, Paclitaxel / Max. Synergy, Vinorelbine: Bliss score; for Total Synergy, Paclitaxel / Total Synergy, Vinorelbine: sum of Bliss scores of the matrix; for Max. Synergy, Vinorelbine / Total Synergy, Vinorelbine: combination with vinorelbine. The protocol: as §1
The two drugs in each combination matrix were dispensed using a Tecan HP D300 Digital Dispenser. Assays were performed in triplicate for each drug combination (test compound/vinorelbine and test compound/paclitaxel combinations). Synergistic drug interactions were calculated from the averaged cell viability data using the methodology described below.
Synergistic drug interactions were determined for each pa1rw1se drug combination by applying the Bliss-independence model that assumes independence of drug mechanisms. Prior to the analysis, percent cell viability (CV) for combination data were converted to fractional cell growth inhibition (GI) by the formula: […]
The Bliss additivism model was used to calculate a predicted combined response C to two single agents with responses A and B (using GI values), as follows:
The final score for any combination was reported as the difference between the value predicted by the additive model and the experimentally observed value, normalised to 100. Using GI values the maximum possible synergy score is 100, with 0 indicating no synergy and negative indicating possible antagonism. Scores were also reported as a “Max synergy” score, which is the highest individual synergy score for each combination matrix, and a “Total synergy” score, which was obtained by summation of each individual synergy score for the matrix.
The single agent IC50 values for the test compounds and their synergy scores in combination with vinorelbine and paclitaxel are presented in Table 4. The data is listed as IC50 mean from technical triplicates for two independent experiments. The averaged IC50 concentrations for the single agents from both runs were then used to generate the 6×6 dose matrices in the synergy experiment. Synergy scores for each drug combination were calculated by the Bliss-independence model. The maximum synergy and total synergy scores for each combination in A2780 cells are listed.

In assay [3] the test system is SK-N-SH neuroblastoma cells. In words: Cytotoxicity assay, MTS viability. As to conditions: Homo sapiens, 72 hours. The protocol: The ability of compounds of the disclosure to inhibit the proliferation of SK—N—SH neuroblastoma cells was assessed. The SK—N—SH cell line was maintained as a monolayer in Dulbeccos Modified Eagles medium (DMEM) supplemented with 10% foetal bovine serum (FBS) and grown at 37° C. in a humidified atmosphere with 5% CO2. For the cytotoxicity assay, SK—N—SH cells were seeded at a density of 2×10^3 cells per well in 96-well plates. The cells were treated with serial dilutions of the test compounds (1:2 starting concentration 100 µM) and viability measured after 72 hours using a standard MTS assay. Cell viability was normalised to control (vehicle alone) and dose response curves and EC50 values (Table 3) were determined using Graph Pad Prism 6.

The mark [4] stands for this setting: single agent, 96-well plate format, read-out: Dose matrix IC50 concentrations.
Where [5] appears, read: 72 h drug exposure, Alamar Blue, 384-well (26*: 96-well plate format), read-out: Single-agent IC50.

For `CCC1=C[C@@H]2CN(C1)Cc1c([nH]c3ccccc13)[C@@](C(=O)OC)(c1cc3c(cc1OC)N(C)[C@H]1[C@@](O)(C(=O)OC)[C@H](OC(C)=O)[C@]4(CC)C=CCN5CC[C@]31[C@@H]54)C2` [vinorelbine, reference compound], in assay [1] (setting [4]), the IC50 was determined as 0.004 µM.
For the compound `Cc1ccc(NC(=O)c2ccn(S(=O)(=O)c3ccc4[nH]ccc4c3)c2)cc1` [Compound 43, 1-((1H-indol-5-yl)sulfonyl)-N-(p-tolyl)-1H-pyrrole-3-carboxamide], the IC50 in assay [1] (setting [5]) worked out at 13 µM. The compound also returned an IC50 in the assay with A549 (NSCLC) cells of 18 µM. Further, in the assay with A2780 (ovarian) cells, the IC50 was 1.9 µM. Also, in assay [2], the “Max. Synergy, Paclitaxel” value was 12.46; the “Total Synergy, Paclitaxel” value came to 3.06; the “Max. Synergy, Vinorelbine” value is listed as 10.94; the “Total Synergy, Vinorelbine” value is on record as 73.13. This compound showed an IC50 in assay [3] of 17.4 µM.
Regarding `CCC(C)c1ccc(NC(=O)C2CCN(S(=O)(=O)c3ccc4[nH]ccc4c3)CC2)cc1` (stereo not shown) [Compound 6, 1-((1H-indol-5-yl)sulfonyl)-N-(4-(sec-butyl)phenyl)piperidine-4-carboxamide], the IC50 in assay [1] (setting [5]) was found to be 12 µM. In addition, the IC50 in the assay with A549 (NSCLC) cells turned out to be 24.9 µM. The IC50 in the assay on A2780 (ovarian) cells came out at 15.1 µM. In addition, in assay [2], the “Max. Synergy, Paclitaxel” value is 6.78; the “Total Synergy, Paclitaxel” value is −46.04; the “Max. Synergy, Vinorelbine” value was determined as 42.36; the “Total Synergy, Vinorelbine” value was 250.66. In assay [3], this compound showed an IC50 of 5.66 µM.
For `O=C(Nc1ccc(F)cc1)c1ccn(S(=O)(=O)c2ccc3[nH]ccc3c2)c1` [Compound 48, 1-((1H-indol-5-yl)sulfonyl)-N-(4-fluorophenyl)-1H-pyrrole-3-carboxamide], in assay [1] (setting [5]), the IC50 was determined as 14.9 µM. For the same compound, the IC50 in the assay on A549 (NSCLC) cells was found to be 3.3 µM. The same compound yielded an IC50 in the assay with A2780 (ovarian) cells of 2.5 µM. Further, in assay [2], the “Max. Synergy, Paclitaxel” value amounted to 31.55; the “Total Synergy, Paclitaxel” value is recorded as 263.84; the “Max. Synergy, Vinorelbine” value stood at 17.28; the “Total Synergy, Vinorelbine” value was determined as 68.74. The IC50 in assay [3] stood at 7.56 µM.
Turning to `CC(=O)O[C@H]1C(=O)[C@@]2(C)[C@H]([C@H](OC(=O)c3ccccc3)[C@]3(O)C[C@H](OC(=O)[C@H](O)[C@@H](NC(=O)c4ccccc4)c4ccccc4)C(C)=C1C3(C)C)[C@]1(OC(C)=O)CO[C@@H]1C[C@@H]2O` [paclitaxel, reference compound], in assay [1] (setting [4]), the IC50 stood at 0.004 µM.
As to `O=C(Nc1ccc(C(F)(F)F)cc1)C1CCN(S(=O)(=O)c2ccc3[nH]ccc3c2)CC1` [Compound 8, 1-((1H-indol-5-yl)sulfonyl)-N-(4-(trifluoromethyl)phenyl)piperidine-4-carboxamide], the IC50 in assay [1] (setting [5]) stood at 14.5 µM; with A549 (NSCLC) cells, 12.1 µM; with A2780 (ovarian) cells, 11.7 µM; in assay [3], 11.4 µM. For the same compound, the “Max. Synergy, Paclitaxel” value in assay [2] is listed as 8.95. The “Total Synergy, Paclitaxel” value in assay [2] is listed as −3.62. Also, the “Max. Synergy, Vinorelbine” value in assay [2] worked out at 32.29. Besides, the “Total Synergy, Vinorelbine” value in assay [2] came out at 225.43.
In the case of `CCC(C)c1ccc(NC(=O)C2CCN(S(C)(=O)=O)CC2)cc1` (stereo not shown) [Compound 29, N-(4-(sec-butyl)phenyl)-1-(methylsulfonyl) piperidine-4-carboxamide], the IC50 (in the assay with A549 (NSCLC) cells; in the assay with A2780 (ovarian) cells; in assay [3]) was greater than 100 µM each time.
Consider `O=C(Nc1ccc(C(F)(F)F)cc1)C1CCN(S(=O)(=O)c2ccc3c(c2)CCN3)CC1` [Compound 5, 1-(indolin-5-ylsulfonyl)-N-(4-(trifluoromethyl)phenyl)piperidine-4-carboxamide], for which the IC50 was 39.6 µM in the assay on A549 (NSCLC) cells, 14.8 µM with A2780 (ovarian) cells and 27.4 µM in assay [3].
For `O=C(Nc1cccc(C(F)(F)F)c1)c1ccn(S(=O)(=O)c2ccc3[nH]ccc3c2)c1` [Compound 46, 1-((1H-indol-5-yl)sulfonyl)-N-(3-(trifluoromethyl)phenyl)-1H-pyrrole-3-carboxamide], the IC50 came out at 7.7 µM in the assay with A549 (NSCLC) cells, 7.1 µM in the assay with A2780 (ovarian) cells and 14.7 µM in assay [3].
Regarding `O=C(Nc1ccc(C(F)(F)F)cc1)N1CCN(S(=O)(=O)c2ccc3c(c2)CCN3)CC1` [Compound 14, 4-(indolin-5-ylsulfonyl)-N-(4-(trifluoromethyl)phenyl)piperazine-1-carboxamide], the values for the IC50 (with A549 (NSCLC) cells; in the assay on A2780 (ovarian) cells; in assay [3]) were 33.1 µM, 24.8 µM and 26.6 µM, respectively.
For `O=C(Nc1ccccc1C(F)(F)F)c1ccn(S(=O)(=O)c2ccc3[nH]ccc3c2)c1` [Compound 47, 1-((1H-indol-5-yl)sulfonyl)-N-(2-(trifluoromethyl)phenyl)-1H-pyrrole-3-carboxamide], the IC50 in the assay on A549 (NSCLC) cells was 2.3 µM; in the assay on A2780 (ovarian) cells, 1.6 µM; in assay [3] it was 27.8 µM.
Take `Cc1ccc(NC(=O)c2ccn(S(=O)(=O)c3ccc4c(c3)CCN4)c2)cc1O` [Compound 22, N-(3-hydroxy-4-methylphenyl)-1-(indolin-5-ylsulfonyl)-1H-pyrrole-3-carboxamide]: the IC50 in the assay with A549 (NSCLC) cells was greater than 100 µM; with A2780 (ovarian) cells, greater than 100 µM; in assay [3] it was 57.6 µM.
As for `O=C(Nc1ccc(F)c(F)c1)c1ccn(S(=O)(=O)c2ccc3[nH]ccc3c2)c1` [Compound 68, 1-((1H-indol-5-yl)sulfonyl)-N-(3,4-difluorophenyl)-1H-pyrrole-3-carboxamide], the IC50 came out at 16.6 µM in the assay with A549 (NSCLC) cells, 8.53 µM in the assay on A2780 (ovarian) cells and 19.1 µM in assay [3].

For the origin of these results see patent US12528792B2, “Sulfonamide compounds and the use thereof in the treatment of cancer” (TROBIO THERAPEUTICS PTY LTD, priority 2019, dated 2026).
